Results taken from patent publication US7407982B2, “Oligo or polyalkylene glycol-coupled thrombin inhibitors” (HaemoSys GmbH, priority 2001, dated 2008).
Where two headings read alike, the source gives them in different places.

Biological target: T1, human α-thrombin (Homo sapiens, UniProt P00734)
T1 construct: 50 μl human α-thrombin (Kordia); purchased Kordia
Assay: Determination of Ki for thrombin inhibition (chromogenic or fluorogenic substrate, Dixon)
Type: biochemical
Details: for KiTrypsin/KiThrombin: Example 8, selectivity quotient
Protocol: The Ki values are the average values of at least three calculations.
For determining the thrombin inhibiting effect of all reversibly binding inhibitors and inhibitor conjugates with inhibiting constants smaller than 1 nM, a fluorescence spectrometer (LS50B from the company Perkin Elmer) was used. […] The Ki values are the average values of at least three calculations.

[1] = Example 8, read-out: KiThrombin
[2] = Table I, formula (II) compounds
[3] = Table 2, formula (III) compounds

| Compound | Ki [2] [nM] | Ki Trypsin/Ki Thrombin (Table I, selectivity quotient) | other results |
| --- | --- | --- | --- |
| 4-Methoxy-benezenesulfonyl-Asn(4-[MeO-PEG5000-CH2CH2CO—NHCH2]-benzyl-Pro-4-amidinobenzylamide |  |  | Ki [1]: 0.19 nM |
| COc1ccc(S(=O)(=O)NCC(=O)N2CCC[C@H]2C(=O)NCc2ccc(C(=N)N)cc2)cc1Cl [1a] | 0.44 | 45 |  |
| COc1ccc(S(=O)(=O)NCC(=O)N2CCC[C@H]2C(=O)NCc2ccc(C(=N)N)cc2)cc1C [1b] | 0.64 | 20 |  |
| N=C(N)c1ccc(CNC(=O)[C@@H]2CCCN2C(=O)CNS(=O)(=O)c2ccc(Cl)c(Cl)c2)cc1 [4a] | 2.5 | 2.3 |  |
| Cc1cccc(S(=O)(=O)NCC(=O)N2CCC[C@H]2C(=O)NCc2ccc(C(=N)N)cc2)c1 [4b] | 2.8 | 2.9 |  |
| N#Cc1cccc(S(=O)(=O)NCC(=O)N2CCC[C@H]2C(=O)NCc2ccc(C(=N)N)cc2)c1 [33a] | 48 | 0.47 |  |
| CCOc1ccc(S(=O)(=O)NCC(=O)N2CCC[C@H]2C(=O)NCc2ccc(C(=N)N)cc2)cc1 [33b] | 66 | 0.42 |  |
| N=C(N)c1ccc(CNC(=O)C2CCCN2C(=O)C(CC2CCCCC2)NCC(=O)O)cc1 [H-D-N(CH2—COOH)Cha-Pro-4-(amidino)benzylamide, reference compound] |  |  | KiTrypsin/KiThrombin: 12; Ki [1]: 0.3 nM |
| N=C(N)N1CCC(CNC(=O)C2CCCN2C(=O)C(CC2CCCCC2)NCC(=O)O)CC1 [H-D-N(CH2—COOH)Cha-Pro-4-(amidomethyl)-N(amidino)piperidine, reference compound] |  |  | KiTrypsin/KiThrombin: 173; Ki [1]: 1.3 nM |
| COc1ccc(S(=O)(=O)NC(CCCCN)C(=O)N2CCCC2C(=O)NCc2ccc(C(=N)N)cc2)cc1 (stereo not drawn) [No. 53, 4-Methoxy-benezenesulfonyl-Lys-Pro-4-amidinobenzylamide] |  |  | KiTrypsin/KiThrombin: 112; Ki [1]: 0.73 nM |
| COc1ccc(S(=O)(=O)NC(CC(=O)O)C(=O)N2CCCC2C(=O)NCc2ccc(C(=N)N)cc2)cc1 (stereo not drawn) [No. 55, 4-Methoxy-benezenesulfonyl-Asp-Pro-4-amidinobenzylamide] |  |  | KiTrypsin/KiThrombin: 48; Ki [1]: 1.6 nM |
| N=C(N)c1ccc(CNC(=O)[C@@H]2CCCN2C(=O)CNS(=O)(=O)Cc2ccccc2)cc1 [compound 6] | 3.6 | 2.1 |  |
| COc1ccc(S(=O)(=O)NCC(=O)N2CCC[C@H]2C(=O)NCc2ccc(C(=N)N)cc2)cc1OC [compound 8] | 4.7 | 4.2 |  |
| N=C(N)c1ccc(CNC(=O)[C@@H]2CCCN2C(=O)CNS(=O)(=O)c2cc(Cl)c(Cl)cc2Cl)cc1 [compound 9] | 5.9 | 3.3 |  |
| N=C(N)c1ccc(CNC(=O)[C@@H]2CCCN2C(=O)CNS(=O)(=O)c2cccc3ccccc23)cc1 [compound 10] | 7.8 | 0.5 |  |
| N=C(N)c1ccc(CNC(=O)[C@@H]2CCCN2C(=O)CNS(=O)(=O)c2cc(Cl)cc(Cl)c2)cc1 [compound 11] | 8.5 | 0.4 |  |
| N=C(N)c1ccc(CNC(=O)[C@@H]2CCCN2C(=O)CNS(=O)(=O)c2ccc3ccccc3c2)cc1 [compound 12] | 8.5 | 6.8 | Ki Trypsin/Ki Thrombin (Table 2, selectivity quotient): 6.8 |
| N=C(N)c1ccc(CNC(=O)[C@@H]2CCCN2C(=O)CNS(=O)(=O)c2ccc(Cl)cc2)cc1 [compound 13] | 10 | 2.7 |  |
| Cc1cc(S(=O)(=O)NCC(=O)N2CCC[C@H]2C(=O)NCc2ccc(C(=N)N)cc2)c(Cl)cc1Cl [compound 14] | 10.5 | 1.1. |  |
| N=C(N)c1ccc(CNC(=O)[C@@H]2CCCN2C(=O)CNS(=O)(=O)c2ccccc2)cc1 [compound 15] | 10.8 | 0.96 |  |

| Compound | Ki [2] [nM] | Ki Trypsin/Ki Thrombin (Table I, selectivity quotient) | other results |
| --- | --- | --- | --- |
| Cc1c(C)c(C)c(S(=O)(=O)NCC(=O)N2CCC[C@H]2C(=O)NCc2ccc(C(=N)N)cc2)c(C)c1C [compound 16] | 12.7 | 2.2 |  |
| N=C(N)c1ccc(CNC(=O)[C@@H]2CCCN2C(=O)CNS(=O)(=O)c2cccc(Cl)c2Cl)cc1 [compound 17] | 12.7 | 0.87 |  |
| Cc1cc(C)c(C)c(S(=O)(=O)NCC(=O)N2CCC[C@H]2C(=O)NCc2ccc(C(=N)N)cc2)c1C [compound 18] | 13.4 | 2.5 |  |
| N=C(N)c1ccc(CNC(=O)[C@@H]2CCCN2C(=O)CNS(=O)(=O)c2ccc(Cl)cc2Cl)cc1 [compound 21] | 15.1 | 1.2 |  |
| Cc1ccc(S(=O)(=O)NCC(=O)N2CCC[C@H]2C(=O)NCc2ccc(C(=N)N)cc2)cc1 [compound 22] | 16.1 | 0.88 |  |
| N=C(N)c1ccc(CNC(=O)[C@@H]2CCCN2C(=O)CNS(=O)(=O)c2ccc(Cl)c(Cl)c2Cl)cc1 [compound 23] | 16.4 | 0.71 |  |
| Cc1cc(C)c(S(=O)(=O)NCC(=O)N2CCC[C@H]2C(=O)NCc2ccc(C(=N)N)cc2)c(C)c1 [compound 24] | 16.6 | 0.80 |  |
| Cc1cc(Cl)cc(Cl)c1S(=O)(=O)NCC(=O)N1CCC[C@H]1C(=O)NCc1ccc(C(=N)N)cc1 [compound 25] | 16.9 | 1.1 |  |
| CCc1ccc(S(=O)(=O)NCC(=O)N2CCC[C@H]2C(=O)NCc2ccc(C(=N)N)cc2)cc1 [compound 26] | 19.1 | 2.6 |  |
| N=C(N)c1ccc(CNC(=O)[C@@H]2CCCN2C(=O)CNS(=O)(=O)c2ccccc2Cl)cc1 [compound 27] | 19.3 | 0.98 |  |
| CC(C)(C)c1ccc(S(=O)(=O)NCC(=O)N2CCC[C@H]2C(=O)NCc2ccc(C(=N)N)cc2)cc1 [compound 29] | 32.2 | 0.32 |  |
| N=C(N)c1ccc(CNC(=O)[C@@H]2CCCN2C(=O)CNS(=O)(=O)c2cccc([N+](=O)[O-])c2)cc1 [compound 30] | 38 | 0.42 |  |
| N=C(N)c1ccc(CNC(=O)[C@@H]2CCCN2C(=O)CNS(=O)(=O)/C=C/c2ccccc2)cc1 [compound 32] | 44.3 | 0.05 |  |
| N#Cc1ccc(S(=O)(=O)NCC(=O)N2CCC[C@H]2C(=O)NCc2ccc(C(=N)N)cc2)cc1 [compound 34] | 76 | 0.33 |  |
| N=C(N)c1ccc(CNC(=O)[C@@H]2CCCN2C(=O)CNS(=O)(=O)c2ccc([N+](=O)[O-])cc2)cc1 [compound 35] | 115 | 0.11 |  |
| N=C(N)c1ccc(CNC(=O)C2CCCN2C(=O)C(CO)NS(=O)(=O)c2ccc3ccccc3c2)cc1 (centres unmarked) [compound 38] |  |  | Ki [3]: 2.54 nM; Ki Trypsin/Ki Thrombin (Table 2, selectivity quotient): 10.9 |
| N=C(N)c1ccc(CNC(=O)C2CCCN2C(=O)C(CC(N)=O)NS(=O)(=O)c2ccc3ccccc3c2)cc1 (centres unmarked) [compound 39] |  |  | Ki [3]: 3.4 nM; Ki Trypsin/Ki Thrombin (Table 2, selectivity quotient): 11 |
| N=C(N)c1ccc(CNC(=O)C2CCCN2C(=O)C(CCC(N)=O)NS(=O)(=O)c2ccc3ccccc3c2)cc1 (centres unmarked) [compound 40] |  |  | Ki [3]: 3.8 nM; Ki Trypsin/Ki Thrombin (Table 2, selectivity quotient): 4.2 |
| N=C(N)c1ccc(CNC(=O)C2CCCN2C(=O)C(CC(=O)O)NS(=O)(=O)c2ccc3ccccc3c2)cc1 (centres unmarked) [compound 42] |  |  | Ki [3]: 24.1 nM; Ki Trypsin/Ki Thrombin (Table 2, selectivity quotient): 2.9 |
| COc1ccc(S(=O)(=O)NC(CC(=O)NCc2cccc(C#N)c2)C(=O)N2CCCC2C(=O)NCc2ccc(C(=N)N)cc2)cc1 (centres unmarked) [compound 46] |  |  | Ki [3]: 0.061 nM; Ki Trypsin/Ki Thrombin (Table 2, selectivity quotient): 1163 |
